From patent publication US8017630B2 (priority 2004, dated 2011)
Like-named read-outs stand apart in the source and are kept apart here.

How the values were obtained:
5HT uptake = type: biochemical, rat
NA uptake = type: biochemical, rat

| SMILES | 5HT uptake % (10) (5HT uptake; hydrochloride) [%] | NA uptake % (10) (NA uptake; hydrochloride) [%] | melting point [°C] | 5HT uptake % (10) (5HT uptake) [%] | NA uptake % (10) (NA uptake) [%] |
| --- | --- | --- | --- | --- | --- |
| CN(C)C1(c2ccccn2)CCC(CC(=O)NCCc2c[nH]c3ccccc23)CC1.Cl (centres unmarked) [Example 47, 2-(4-Dimethylamino-4-pyridin-2-ylcyclohexyl)-N-[2-(1H-indol-3-yl)ethyl]acetamide hydrochloride] | 46 | 63 | 150 to 153 |  |  |
| CN(C)C1(c2ccccn2)CCC(CC(=O)NCCc2c[nH]c3ccccc23)CC1.Cl (centres unmarked) [Example 48, 2-(4-Dimethylamino-4-pyridin-2-ylcyclohexyl)-N-[2-(1H-indol-3-yl)ethyl]acetamide hydrochloride] | 85 | 74 |  |  |  |
| CN(C)C1(c2ccccn2)CCC(CC(=O)NCCCc2ccccc2)CC1.Cl (centres unmarked) [Example 49, 2-(4-Dimethylamino-4-pyridin-2-ylcyclohexyl)-N-(3-phenylpropyl)acetamide hydrochloride] |  |  | 218 to 220 | 32 | 94 |
